# Experiments:
# [1] = Dietary cholesterol absorption, fecal extraction method; type: in vivo, mice; conditions: 50 mg/kg daily oral, 7 days
# Description: Induction of cholesterol efflux pumps such as ABCA1 in the intestine limits the absorption of dietary cholesterol by stimulating the efflux of cholesterol out of intestinal enterocytes and into the intestinal lumen where it is excreted. To examine the effect of LXR pan-agonists on dietary cholesterol absorption, mixed wildtype and LXRαβ−/− mice were treated with vehicle or Compound 1 (50 mg/kg) for seven days prior to the initiation of the cholesterol absorption protocol. Compound 1 was administered by daily oral gavage in a 1% carboxy methyl-cellulose/ethanol vehicle via a 1-cc syringe fitted with a 20G disposable feeding needle. Compound was solvated in ethanol (5% final volume) and brought up to final volume with 1% carboxy methylcellulose. On day seven of the study, animals received a single oral bolus dose of 0.67 μCi [4-^14C]cholesterol (New England Nuclear, Boston, Mass.) and 1.3 μCi [5,6-^3H]sitostanol (ARC, St. Louis Mo.) by gavage in MCT oil (Mead Johnson, Evansville, Ind.). […] Extracted samples were counted on a scintillation counter and then analyzed based upon the following equation. [((^14C/^3H) dosing mixture)−(^14C/^3H) fecal samples)]/((^14C/^3H) dosing mixture). […] This agonist-dependent effect is lost in LXRαβ−/− mice indicating a requirement for LXR activity in mediating this activity.
# ABCA1 mRNA = ABCA1 mRNA induction in cultured peritoneal macrophages; type: cell-based, mice; conditions: 24 hours
# Excerpt: (§1) The individual contributions of both receptors to macrophage gene expression were examined by first measuring the amount of mRNA encoding LXRα and LXRβ in thioglycolate-elicited peritoneal macrophages obtained from mixed wildtype mice. Thioglycolate-elicited peritoneal macrophages were isolated from mice 4 days after peritoneal injection of thioglycolate media. Peritoneal macrophages were harvested by lavage of the peritoneum with phosphate buffered saline (PBS), cells were washed, transferred to 60 mm culture plates and incubated at 37° C. in RPMI 1640 media (Life Technologies) containing 10% FBS, 2 mmol/L glutamine, 100 μg/mL streptomycin and 100 IU penicillin (Life Technologies). After 5 hours at 37° C., cells were washed 5 times with PBS to remove non-adherent cells and adherent cells were further incubated in RPMI 1640 media supplemented with 10% FBS for 24 hours. To determine the mRNA levels of LXRα and LXRβ, after 24 hours total RNA was isolated from cultured macrophages using RNeasy kits (QIAGEN Inc.) according to the supplier's total RNA isolation procedure. The RNA samples were further treated with deoxyribonuclease I to eliminate contaminating genomic DNA. LXRα and LXRβ mRNA levels were than analyzed by real-time based quantitative PCR using Perkin Elmer ABI Prism 7700 and Sequence Detection System software (Perkin Elmer). […] To further examine LXR-dependent gene expression in macrophages, peritoneal macrophages were isolated as described above from mixed wildtype, LXRα−/− (C57BL/6), LXRβ−/−, and LXRαβ−/− mice. After removal of non-adherent cells, the remaining macrophages were than cultured in either the absence or presence of LXR pan-agonist (1.0 μM Compound 1) for 24 hours. At the end of the experiment total RNA was isolated from cultured macrophages using RNeasy kits (QIAGEN Inc.) according to the supplier's total RNA isolation procedure. RNA samples were further treated with deoxyribonuclease I to eliminate contaminating genomic DNA before use. The LXR agonist-dependent induction of the ABCA1 and ABCG1 mRNAs were than analyzed by real-time based quantitative PCR using Perkin Elmer ABI Prism 7700 and Sequence Detection System software (Perkin Elmer). ABCA1 and ABCG1 function as efflux pumps that mediate the transfer of intracellular cholesterol out of cells to HDL particles, a process referred to as reverse cholesterol transport. […] Elimination of LXRα activity (LXRα−/−) has no effect on the agonist-dependent response. In contrast, elimination of LXRβ activity (LXRβ−/−) reduces the agonist-dependent induction of ABCA1 by 82% and the ABCG1 induction by 50%. […] Thus LXRβ alone is sufficient to allow the maximum induction of ABCA1 and ABCG1 in peritoneal macrophages.
# [2] = test system: lipoprotein lipase (LPL) mRNA; assay: Liver lipoprotein lipase (LPL) mRNA by quantitative PCR in treated mice; type: in vivo; conditions: 10 mg/kg daily oral; for LPL mRNA induction: day 7
# Excerpt: To decipher the physiological roles of LXRα and LXRβ mice, seven different lines of mice encompassing four unique LXR genotypes (LXRα+/+, LXRβ+/+=wildtype; LXRα−/−, LXRβ+/+=LXRα−/−; LXRα+/+, LXRβ−/−=LXRβ−/−; LXRα−/−, LXRβ−/−=LXRαβ−/−) were studied. Genetic knockouts of LXRα( LXRα−/−) were generated in two independent mouse strain backgrounds (C57BL/6 and A129). Genetic knockouts of LXRβ (LXRβ−/−) and the double knockout of LXRα and LXRβ (LXRαβ−/−) were generated in a mixed genetic background (C57BL/6×A129). The three appropriate wildtype (LXRα+/+, LXRβ+/+) mouse lines were used as controls. Mice from each line were treated for seven days with 10 mg compound/kg body weight of the LXR agonist Compound 1: N-(2,2,2-trifluoroethyl)-N-[4-(2,2,2- trifluoro-1-hydroxy-1-trifluoromethylethyl)-phenyl]-benzene sulfonamide. […] Compound 1 was administered by daily oral gavage in a sesame oil/ethanol vehicle via a 1-cc syringe fitted with a 20G disposable feeding needle. Compound was solvated in ethanol (5% final volume) and brought up to final volume with sesame oil (Sigma, St. Louis, Mo.).
# ABCG1 mRNA = ABCG1 mRNA induction in cultured peritoneal macrophages; type: cell-based, mice; conditions: 24 hours
# Excerpt: as §1
# [3] = LXRβ−/− macrophages versus wildtype, 1.0 μM
# [4] = Mus musculus, Macrophage, wildtype macrophages
smiles,measurement,setting,value
"O=S(=O)(c1ccccc1)N(CC(F)(F)F)c1ccc(C(O)(C(F)(F)F)C(F)(F)F)cc1 [Compound 1, N-(2,2,2-trifluoroethyl)-N-[4-(2,2,2-trifluoro-1-hydroxy-1-trifluoromethylethyl)-phenyl]-benzene sulfonamide]",effect on cholesterol absorption,[1]; LXRαβ−/− mice,lost
same,effect on cholesterol absorption,[1]; mixed wildtype mice,significant decrease in cholesterol absorption
same,agonist-dependent ABCA1 mRNA induction,"ABCA1 mRNA; LXRαβ−/− macrophages, 1.0 μM",completely blocks the response
same,agonist-dependent ABCA1 mRNA induction,"ABCA1 mRNA; LXRα−/− macrophages, 1.0 μM",no effect
same,reduction of agonist-dependent induction of ABCA1,ABCA1 mRNA; [3],82%
same,fold induction at 1 µM,ABCA1 mRNA; [4],28
same,LPL mRNA induction,[2]; LXRα−/− mice (C57BL/6 and A129),completely blocks the pan-agonist induction of LPL
same,LPL mRNA induction,[2]; LXRβ−/− mice,little or no effect
same,fold induction at 10 mg/kg,"[2]; Mus musculus, 168 h, wildtype mice, day 7, read-out: LPL mRNA fold induction (+Compound 1/vehicle)",3 to 9
same,agonist-dependent ABCG1 mRNA induction,"ABCG1 mRNA; LXRαβ−/− macrophages, 1.0 μM",completely blocks the response
same,agonist-dependent ABCG1 mRNA induction,"ABCG1 mRNA; LXRα−/− macrophages, 1.0 μM",no effect
same,reduction of agonist-dependent induction of ABCG1,ABCG1 mRNA; [3],50%
same,fold induction at 1 µM,ABCG1 mRNA; [4],8

# Reference: patent US6924311B2, “Methods for affecting various diseases utilizing LXR compounds” (X-Ceptor Therapeutics, Inc., priority 2001, dated 2005)
